According to PMC12081876, “Identification of PTGR2 inhibitors as a new therapeutic strategy for diabetes and obesity” (EMBO Molecular Medicine, 2025):
Several values for one entry are separate records, joined by “and”; a condition that tells them apart may be missing. Identical values can stand only once.

Columns and labels:
3T3-L1 adipocytes = assay: Intracellular 15-keto-PGE2 content of 3T3-L1 cells (LC-MS/MS); type: cell-based, mouse
Experimental: The lysate was centrifuged at 300 × g for 5 min to remove cellular debris. The supernatant was transferred to a new tube. The C18 SPE cartridge was sequentially activated with 2 mL methanol and 2 mL ddH2O. The lower-layer sample was transferred to the C18 SPE cartridge. Once the lysate passed the cartridge, the SPE cartridge was washed with 2 mL 15% methanol and 5 mL ddH2O. The sample was then eluted with 5 mL HPLC-degree methanol and aliquoted into new 2-mL tubes. The elute was air-dried using a SpeedVac system and stored at −80 °C. The dried samples were reconstituted with 60 μL methanol before analysis.

[1] = test system: HFHSD-fed obese C57BL6/J mice; assay: Tissue weights (fat pads, liver, BAT); type: in vivo, mouse; set-up: Inguinal fat weight (Figure 5N): unit not given here
hPTGR2 [2] = target: T1, hPTGR2 (Homo sapiens, UniProt Q8N8N7); assay: 15-keto-PGE2-dependent PPARγ trans-activation in PTGR2-transfected HEK293T cells; type: cell-based; set-up: expressed in transfected cells; host or cells: HEK293T; details: for Figure 5C relative PPARγ trans-activation (replicates): (+) Ptgr2
T1 sequence (Q8N8N7 whole entry): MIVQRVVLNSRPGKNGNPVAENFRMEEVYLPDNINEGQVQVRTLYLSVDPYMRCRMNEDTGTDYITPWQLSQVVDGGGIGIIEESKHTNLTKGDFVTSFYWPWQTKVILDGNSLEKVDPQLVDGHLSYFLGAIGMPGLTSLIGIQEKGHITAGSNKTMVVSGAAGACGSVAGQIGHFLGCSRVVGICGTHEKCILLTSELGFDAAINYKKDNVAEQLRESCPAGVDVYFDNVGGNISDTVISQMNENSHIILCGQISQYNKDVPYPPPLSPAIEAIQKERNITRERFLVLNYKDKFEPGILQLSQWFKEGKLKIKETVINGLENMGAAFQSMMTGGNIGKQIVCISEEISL
Source text: Based on these findings from the Ptgr2^−/− mice, we next searched for druggable chemical inhibitors that can effectively suppress human PTGR2 (hPTGR2) enzymatic activity. Using a high-throughput screening of 12,500 chemicals, we identified 31 hits and generated 282 derivatives using a molecular hybridization strategy among the hits. The in vitro IC50 (the half-maximal inhibitory concentration), EC50 (the concentration for half-maximal effect), and the compound’s activity to restore 15-keto-PGE2-dependent PPARγ trans-activation in HEK293T cells expressing recombinant PTGR2 were profiled.
Gal4-PPARγ/UAS-LUC reporter assay was conducted as previously described (Wu et al, [2008]) with minor modifications. Briefly, HEK293T cells were seeded in 24-well plates at 1 × 10^5 cells/well. After 24-h growth, a DNA solution containing UASG reporter construct, GAL4-PPAR expression plasmid, and TK-Rluc (Renilla luciferase) reporter construct (internal control) was transfected using TurboFect™ transfection reagent (cat. no. R0532, Thermo Fisher). Cells were treated and harvested after another 24 and 48 h, respectively. Luciferase activity was measured using Luc-Pair™ Duo-Luciferase HS Assay Kit (cat. no. LF600, Promega) and normalized with the TK reporter signal.

hPTGR2 [3] = target: T1, hPTGR2; assay: Enzyme kinetics (Lineweaver–Burk) of hPTGR2 with 15-keto-PGE2; type: biochemical; set-up: made in house
[4] = test system: HFHSD-fed obese C57BL6/J mice; assay: Body composition (fat mass, lean mass, free water, total water); type: in vivo, mouse; set-up: Fat mass (Figure 5O) / lean mass (Figure 5O) / Free fluid (Figure 5O): unit not given beside the values; details: for body composition: fat mass / fluid retention (body composition): vs vehicle
wild-type mPPARγ = target: T2, wild-type mPPARγ (Mus musculus, UniProt P37238); assay: PPRE reporter assay in HEK293T cells, wild-type mPPARγ; type: cell-based, murine; set-up: key to PPRE reporter activity, Fig 1M replicates: luciferase activity normalized to TK reporter signal; details: for PPRE reporter activity, Fig 1M replicates: PPARg WT
T2 construct: host or cells: HEK293T
T2 sequence (P37238 1-505): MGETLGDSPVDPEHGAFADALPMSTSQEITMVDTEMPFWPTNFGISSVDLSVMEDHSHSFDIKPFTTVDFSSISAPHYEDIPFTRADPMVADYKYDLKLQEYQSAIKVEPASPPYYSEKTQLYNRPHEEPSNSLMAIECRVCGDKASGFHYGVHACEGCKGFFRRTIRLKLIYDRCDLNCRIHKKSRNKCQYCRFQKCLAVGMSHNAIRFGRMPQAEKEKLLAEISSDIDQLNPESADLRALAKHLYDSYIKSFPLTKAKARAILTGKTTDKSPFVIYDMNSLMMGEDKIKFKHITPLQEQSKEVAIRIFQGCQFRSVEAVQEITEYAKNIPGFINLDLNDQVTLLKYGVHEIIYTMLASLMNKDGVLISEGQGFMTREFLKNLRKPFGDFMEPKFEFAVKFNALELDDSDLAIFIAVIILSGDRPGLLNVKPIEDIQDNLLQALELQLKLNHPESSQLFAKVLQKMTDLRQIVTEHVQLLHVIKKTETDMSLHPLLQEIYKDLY
Experimental: For PPRE reporter assay, HEK293T cells were seeded in 24-well plates at 1 × 10^5 cells/well. […] The luciferase activity was measured by Luc-Pair™ Duo-Luciferase HS Assay Kit (cat. no. LF600, Promega, USA) and normalized to the TK reporter signal.

[5] = individual animals, in g (unit assumed)
[6] = 100 mg/kg/day oral, HFHSD-fed mice
[7] = Figure 2J, individual mice, listed as 15kPGE2, in g (unit assumed)
[8] = 40 mg/kg/day ip, 3 weeks, HFHSD-fed mice
[9] = 40 mg/kg/day ip, HFHSD-fed mice, listed as 15kPGE2

Cc1[nH]c2nc(C(C)N3CCN(c4ccccc4)CC3)nn2c(=O)c1Cc1ccc(F)cc1 (stereo not drawn) [BPRPT0245]
intracellular 15-keto-PGE2 concentrations (3T3-L1 adipocytes; differentiated 3T3-L1 adipocytes treated with BPRPT0245): increased intracellular 15-keto-PGE2 concentrations in a dose-dependent manner
white fat mass and liver mass ([1]; 100 mg/kg/day oral, HFHSD-fed mice, vs vehicle): significantly reduced
Inguinal fat weight (Figure 5N) ([1]; individual animals): 3.1135 and 2.4997 and 3.7598 and 1.225 and 2.118 and 3.7874 and 2.0547 and 1.3489 and 2.0692 and 1.6337
BAT weight (Figure 5N) [1, 5]: 0.1698 and 0.1291 and 0.2802 and 0.1132 and 0.1765 and 0.2813 and 0.0604 and 0.0923 and 0.1293
Liver weight (Figure 5N) [1, 5]: 1.4298 and 1.1221 and 1.8053 and 1.0426 and 1.3688 and 2.9793 and 1.3504 and 1.1836 and 1.2693 and 1.0805
Mesenteric fat weight (Figure 5N) [1, 5]: 1.0785 and 0.4119 and 1.0515 and 0.3617 and 0.4577 and 1.3111 and 0.5735 and 0.369 and 0.413 and 0.3561
Perigonadal fat weight (Figure 5N) [1, 5]: 2.771 and 2.393 and 3.067 and 1.288 and 2.096 and 2.817 and 2.396 and 1.58 and 2.043 and 2.048
EC50 (hPTGR2 [2]; restoring 15-keto-PGE2-dependent PPARγ trans-activation, HEK293T expressing recombinant PTGR2): 49.2 nM
mode of inhibition (Lineweaver–Burk plot) (hPTGR2 [3]; BPRPT0245 50 nM): competitive hPTGR2 inhibitor
Lineweaver-Burk plot value, average (Figure 5H) (hPTGR2 [3]; BPRPT0245 50 nM, 15-keto-PGE2(um) 0.01): 0.05189
Lineweaver-Burk plot value, average (Figure 5H) (hPTGR2 [3]; BPRPT0245 50 nM, 15-keto-PGE2(um) 0.0142857): 0.06506
Lineweaver-Burk plot value, average (Figure 5H) (hPTGR2 [3]; BPRPT0245 50 nM, 15-keto-PGE2(um) 0.02): 0.06763
Lineweaver-Burk plot value, average (Figure 5H) (hPTGR2 [3]; BPRPT0245 50 nM, 15-keto-PGE2(um) 0.025): 0.07832
Lineweaver-Burk plot value, average (Figure 5H) (hPTGR2 [3]; BPRPT0245 50 nM, 15-keto-PGE2(um) 0.0333333): 0.1063
Lineweaver-Burk plot value, average (Figure 5H) (hPTGR2 [3]; BPRPT0245 50 nM, 15-keto-PGE2(um) 0.05): 0.1377
Lineweaver-Burk plot value, average (Figure 5H) (hPTGR2 [3]; BPRPT0245 50 nM, 15-keto-PGE2(um) 0.1): 0.2333
Vmax (change on addition of inhibitor) (hPTGR2 [3]; with BPRPT0245 50 nM): remained unchanged
body composition: fat mass [4, 6]: marginally significantly reduced fat mass
fluid retention (body composition) [4, 6]: did not cause fluid retention
Fat mass (Figure 5O) ([4]; individual animals): 18.94 and 14.08 and 8.33 and 20.43 and 12.66 and 22.41 and 12.99 and 8.39 and 11.25 and 10.06
Free fluid (Figure 5O) ([4]; individual animals): 3.62 and 3.13 and 2.31 and 3.61 and 2.85 and 4.07 and 3.08 and 2.76 and 3.02 and 2.68
lean mass (Figure 5O) ([4]; individual animals): 26.38 and 24.44 and 20.16 and 22.44 and 28.07 and 22.14 and 23.04 and 23.87 and 21.38
Total water (Figure 5O) [4, 5]: 24.73 and 22.68 and 18.44 and 23.16 and 20.8 and 26.52 and 20.79 and 21.19 and 22.12 and 19.78

CCCCCC(=O)CC[C@H]1[C@H](O)CC(=O)[C@@H]1C/C=C\CCCC(=O)O [13,14-dihydro-15-keto-PGE2]
PPRE reporter activity, Fig 1M replicates (wild-type mPPARγ; 1314dh-15kPGE2 5uM): 0.8192 and 0.7939 and 0.9277
PPRE reporter activity, Fig 1M replicates (wild-type mPPARγ; 1314dh-15kPGE2 10uM): 1.0416 and 0.7874 and 1.0502

CCCCCC(=O)/C=C/[C@H]1[C@H](O)CC(=O)[C@@H]1C/C=C\CCCC(=O)O [15-keto-PGE2, 15-keto-prostaglandin E2]
PPRE reporter activity, Fig 1M replicates (wild-type mPPARγ; 15kPGE2 1uM): 0.8257 and 0.8644 and 0.9986
PPRE reporter activity, Fig 1M replicates (wild-type mPPARγ; 15kPGE2 5uM): 1.6663 and 1.771 and 1.8768
PPRE reporter activity, Fig 1M replicates (wild-type mPPARγ; 15kPGE2 10uM): 2.316 and 1.9846 and 1.9282
PPRE reporter activity, wild-type mPPARγ (wild-type mPPARγ; HEK293T): dose-dependently increases the reporter activity of PPARγ
increase of intracellular 15-keto-PGE2 levels (3T3-L1 adipocytes; exogenously added 15-keto-PGE2 10–20 μM, 3T3-L1 adipocytes): 1.25 to 1.78 fold
White fat mass ([1]; 40 mg/kg/day ip, 3 weeks, HFHSD-fed mice, vs vehicle): reduced
BAT weight [1, 7]: 0.1049 and 0.0893 and 0.0681 and 0.1024 and 0.0901 and 0.0904 and 0.0815 and 0.0934 and 0.1303 and 0.0871 and 0.1289 and 0.0981 and 0.1279
gonadal fat weight [1, 7]: 1.0948 and 0.4418 and 0.5418 and 0.586 and 0.6631 and 0.6417 and 0.7873 and 0.8763 and 0.4217 and 0.3751 and 0.7101 and 0.437 and 1.2399 and 1.5271
inguinal fa (inguinal fat weight) [1, 7]: 0.5361 and 0.3262 and 0.2899 and 0.5695 and 0.44 and 0.4775 and 0.4155 and 0.4527 and 0.3306 and 0.2941 and 0.47 and 0.5739 and 0.6454 and 0.6994
liver weight [1, 7]: 1.4646 and 1.5001 and 1.364 and 1.198 and 1.291 and 1.4569 and 1.3602 and 1.5387 and 1.535 and 1.2853 and 1.4911 and 1.7319 and 1.4367 and 1.4078
mesneteric fat weight [1, 7]: 0.4239 and 0.1584 and 0.1617 and 0.203 and 0.2549 and 0.1777 and 0.3522 and 0.3152 and 0.191 and 0.1812 and 0.1041 and 0.3498 and 0.3664 and 0.5006
Km (hPTGR2 [3]; read-out: Km between 15-keto-PGE2 and hPTGR2, without BPRPT0245): 29.1 ± 0.77 µM
body composition: fat mass [4, 8]: reduced fat mass
fluid retention (body composition) [4, 8]: without fluid retention
fat mass, Fig 2K, per mouse [4, 9]: 5.32 and 2.67 and 2.477 and 3.3 and 3.197 and 3.02 and 3.75 and 4.29 and 2.763 and 2.153 and 4.333 and 4.837 and 5.383 and 6.203
free water, Fig 2K, per mouse [4, 9]: 2.353 and 2.46 and 2.333 and 2.08 and 2.14 and 2.517 and 2.187 and 2.62 and 2.42 and 2.197 and 2.23 and 2.307 and 2.467
lean mass, Fig 2K, per mouse [4, 9]: 21.65 and 22.52 and 23.3767 and 19.74 and 20.2767 and 20.98 and 21.1733 and 22.3667 and 21.9633 and 21.94 and 20.5267 and 22.2733 and 21.2733 and 21.61
total water, Fig 2K, per mouse ([4]; 40 mg/kg/day ip, HFHSD-fed mice, listed as 15kPGE2, in g (unit assumed)): 19.6733 and 20.4733 and 21.0367 and 17.8733 and 18.36 and 19.3 and 19.1267 and 20.5133 and 19.99 and 19.7467 and 18.65 and 20.1267 and 19.4833 and 19.7567

Cc1[nH]c2nc(C(C)N3CCN(c4ccccc4)CC3)nn2c(=O)c1Cc1ccc(F)cc1 (stereo not drawn) [BPRPT245]
Figure 5C relative PPARγ trans-activation (replicates) (hPTGR2 [2]; 16nM): 0.5809 and 0.5894 and 0.6256 and 0.6099 and 0.5702
Figure 5C relative PPARγ trans-activation (replicates) (hPTGR2 [2]; 80nM): 0.8628 and 0.8769 and 0.8751 and 0.836 and 0.7826
Figure 5C relative PPARγ trans-activation (replicates) (hPTGR2 [2]; 400nM): 0.9481 and 0.8913 and 0.9158 and 0.7904 and 0.8206
Figure 5C relative PPARγ trans-activation (replicates) (hPTGR2 [2]; 2uM): 0.9154 and 0.9224 and 0.8575 and 0.8409 and 0.8698
Figure 5C relative PPARγ trans-activation (replicates) (hPTGR2 [2]; 10uM, (-) Ptgr2 about 1, (+) Ptgr2 alone 0.41-0.61): 0.9406 and 0.9982 and 0.9802 and 0.9197 and 0.9012
